Data as given in patent US4137318A, “N-(phenylalkylamino-alkyl)-dihydroisoquinolinones, pharmaceutical compositions and methods employing them” (Boehringer Ingelheim GmbH, priority 1976, dated 1979).

Experiments:
[1] = test system: heart rate; assay: Bradycardiac test: effect of test compound on the heart rate of anesthetized cats; assay type: in vivo
Protocol: The effect of the test compound on the heart rate was tested at various dosage levels on 2-4 cats of both sexes per dose. The average body weight of the cats was 2.5-3.5 kg. For this purpose the animals were anesthetized with nembutal (30 mgm/kg i.p.) and chloralose-urethane (40 mgm/ml chloralose + 200 mgm/ml urethane as required). The test compound in aqueous solution was injected into the Vena saphena (i.v.) or duodenum (i.p.).
The heart rate was registered before and after administration of the test compound on a Grass-polygraph by means of a Grass-tachograph from the electrocardiogram (precordial lead).

[2] = LD50 in mice, i.v., observation time of 14 days; conditions: mouse, in vivo, iv, observation time of 14 days
From the text: Additionally, it should be noted that at all dosage levels the test compounds were tolerated very well and produced no toxic side-effects.

COc1ccc(CCN(C)CCCN2CCCc3cc(OC)c(OC)cc3C2=O)cc1OC.Cl [E, 1-[7,8-dimethoxy-1,2,3,4-tetrahydro-5H-2-benzazepin-1-one-2-yl]-3-[N-methyl-N-(2-(3,4-dimethoxy-phenyl)-ethyl)-amino]-propane hydrochloride]
Duration of effective action ([1]; 1.0 mgm/kg i.v.): 30 min
Duration of effective action ([1]; 2.0 mgm/kg i.v.): 20 min

COc1ccc(CCNCCCN2CC(C)(C)c3cc(OC)c(OC)cc3C2=O)cc1OC.Cl [D, 1-[4,4-dimethyl-6,7-dimethoxy-3,4-dihydro-2H-isoquinolin-1-one-2-yl]-3-[N-(2-(3,4-dimethoxy-phenyl)-ethyl)-amino]-propane hydrochloride]
Duration of effective action ([1]; 1.0 mgm/kg i.v.): 6 min
Duration of effective action ([1]; 3.0 mgm/kg i.v.): 16 min

COc1ccc(CCN(C)CCCN2CCc3cc(OC)c(OC)cc3C2=O)cc1OC.Cl [A, 1-[6,7-dimethoxy-3,4-dihydro-2H-isoquinolin-1-one-2-yl]-3-[N-methyl-N-(2-(3,4-dimethoxy-phenyl)-ethyl)-amino] propane hydrochloride]
Duration of effective action ([1]; 0.1 mgm/kg i.v.): 30 min
Duration of effective action ([1]; 0.3 mgm/kg i.v.): 30 min
Duration of effective action ([1]; 1.0 mgm/kg i.v.): 50 min
Duration of effective action ([1]; 3.0 mgm/kg i.d.): 60 min
Duration of effective action ([1]; 10.0 mgm/kg i.v.): 70 min
Duration of effective action ([1]; 30.0 mgm/kg i.d.): 60 min
LD50 at 336 h [2]: 53 mg/kg

COc1ccc(CCNCCCN2CCc3cc(OC)c(OC)cc3C2=O)cc1OC.Cl [B, 1-[6,7-dimethoxy-3,4-dihydro-2H-isoquinolin-1-one-2-yl]-3-[N-(2-(3,4-dimethoxy-phenyl)-ethyl)-amino] propane hydrochloride]
Duration of effective action ([1]; 0.3 mgm/kg i.v.): 22 min
Duration of effective action ([1]; 1.0 mgm/kg i.v.): 17 min
Duration of effective action ([1]; 2.0 mgm/kg i.v.): 43 min

COc1ccc(CCN(C)CCCN2CC(C)(C)c3cc(OC)c(OC)cc3C2=O)cc1OC.Cl [C, 1-[4,4-dimethyl-6,7-dimethoxy-3,4-dihydro-2H-isoquinolin-1-one-2-yl]-3-[N-methyl-N-(2-(3,4-dimethoxy-phenyl)-ethyl)-amino]-propane hydrochloride]
Duration of effective action ([1]; 0.3 mgm/kg i.v.): 8 min
Duration of effective action ([1]; 1.0 mgm/kg i.v.): 11 min
Duration of effective action ([1]; 3.0 mgm/kg i.v.): 18 min
